From ChEMBL document CHEMBL3988442, “University of Dundee, Small-Polar-MMV Screening Library” (2021)

Assays:
[1] = microbe, parasite or virus in culture; conditions: Mycobacterium tuberculosis, 96 h, read-out: pIC50 (converted)
[2] = microbe, parasite or virus in culture; conditions: Mycobacterium tuberculosis, 72 h, read-out: pIC50 (converted)

Structure (SMILES) | IC50 [1] | IC50 [2]
CCCC1C=CCN1C(=O)c1cc(COc2ccc3c(c2)OCO3)[nH]n1 (centres undefined) | 11.8 µM | > 50.1 µM
COC(=O)[C@H](C)NC(=O)c1cc(-c2cccc(Cl)c2)no1 | 26 µM | 42.5 µM
Cc1ccc(OC(C)CN)cc1 (centres undefined) | 166 µM | 77 µM
OCCN1CCN(c2nc(-c3ccccc3)no2)CC1 | > 501 µM | 83.7 µM
COCC(C)(CCO)NCC(=O)Nc1ccccc1I (centres undefined) | > 501 µM | 238 µM
O=C(c1cccc(-n2cccn2)n1)N1CCCC1 | 163 µM | 59.6 µM
COc1ccc(CNC(=O)CCC2CCCO2)cn1 (centres undefined) | > 501 µM | 91.5 µM
Clc1cccc2nc(N3CCNCC3)oc12 | 349 µM | 144 µM
CC(C)(N)C(O)c1ccc(Br)cc1 (centres undefined) | > 501 µM | 126 µM
COCCNC(=O)c1cc(-c2cccc(O)c2)on1 | 157 µM | 231 µM
CCC(N)C(=O)N1CCN(c2ccc(F)cc2Cl)CC1 (centres undefined) | 266 µM | 322 µM
Cc1ccc2oc(N3CCNCC3)nc2c1 | > 501 µM | 190 µM
COc1cccc(-c2ncc(CN)s2)c1 | 282 µM | 161 µM
O=C(c1cc(C2CC2)on1)N1CCC2(CCOCC2)C1 | 25.4 µM | 20.5 µM
CC(C)c1csc(C(=O)N(C)c2ccc(Br)cn2)n1 | 25.3 µM | 21.7 µM
CCN1C[C@H](NC(=O)c2ccc(Cl)s2)[C@@H](OC)C1 | > 501 µM | 137 µM
CC(C)CC(NC(N)=O)C(=O)Nc1cc(F)cc(F)c1 (centres undefined) | > 501 µM | 239 µM
Cc1nn(CC(=O)N(C)C)c(=O)c2ccccc12 | > 501 µM | > 501 µM
CCCOc1cc(C)ccc1NC(=O)Cn1cnnn1 | > 501 µM | 273 µM
NC(=O)C1CCN(CCOc2ccc(Br)cc2)C1 (centres undefined) | > 501 µM | > 501 µM
OCC(O)CSCc1nc(-c2ccc(Cl)cc2)no1 (centres undefined) | 260 µM | 385 µM
NC(=O)c1ccc(-n2ccnc2-c2cccc(O)c2)cc1N1CCCC1 | > 50.1 µM | > 50.1 µM
Cc1ccc(-c2noc(CNS(C)(=O)=O)n2)cc1 | > 501 µM | 248 µM
Cc1onc(N)c1S(=O)(=O)NCc1ccccc1Cl | > 501 µM | 156 µM
Cc1ccc(-n2cc(CN3CCOCC3)c(-c3cccc(C)c3)n2)cc1 | > 50.1 µM | 24.8 µM
Cc1cc(Br)oc1C(=O)N1CCCN(C)CC1 | > 501 µM | 248 µM

Structure (SMILES) | IC50 [1] | IC50 [2]
CC(C)N(C)S(=O)(=O)N(C)Cc1ccc(Br)o1 | 394 µM | 204 µM
CCc1nnsc1C(=O)NC(CC(C)C)C(=O)OC (centres undefined) | > 50.1 µM | > 50.1 µM
O=C(Nc1cccnc1)[C@H]1COC[C@H]2CN(C3CCCC3)C[C@H]21 | > 50.1 µM | > 50.1 µM
COc1ccc2c(c1)OCC(CNC(=O)CN(C)C)C2 (centres undefined) | > 501 µM | > 501 µM
NCC(c1cccs1)N1CCCC1 (centres undefined) | 494 µM | 156 µM
Cc1ccccc1C(=O)N1CC[C@@H]2CN(c3ncccn3)CCO[C@@H]2C1 | > 50.1 µM | > 50.1 µM
Cc1cccc2[nH]cc(CCN)c12 | 229 µM | 124 µM
COCCNS(=O)(=O)c1cccc2c1CN(C(=O)c1ccoc1)CC2 | > 50.1 µM | > 50.1 µM
Cc1c(C(=O)NC[C@H]2CCCN2)n(C)c2ccccc12 | > 501 µM | > 501 µM
CN(C)S(=O)(=O)c1ccc(COC(=O)C2CC2)o1 | 338 µM | > 501 µM
COc1coc(CN2CCCC(CCc3ccccc3C)C2)cc1=O (centres undefined) | 16.2 µM | 16.1 µM
COc1ccc(S(=O)(=O)N2CC(NCC3CC3)C2)cc1 | > 501 µM | 209 µM
COCCCNC(=O)c1coc(Br)c1 | 116 µM | 118 µM
CCc1nc(C2CCCN2C(=O)CCCOc2cccc(F)c2)no1 (centres undefined) | > 50.1 µM | > 50.1 µM
NC(=O)c1ccsc1NC(=O)CCN1CCCCC1 | > 501 µM | 495 µM
Cn1ccc(C(=O)NCc2csc(Br)c2)cc1=O | > 501 µM | > 501 µM
Cc1ccccc1OCC1CCCN(c2cc(N)nc(N)n2)C1 (centres undefined) | 30.1 µM | 35.7 µM
FC(F)(F)Sc1ccc(NCc2nnc(C3CC3)o2)cc1 | 14.3 µM | 36.4 µM
CCOC(=O)CSc1ccc(-c2nc(CC)no2)cn1 | 27.2 µM | 29.9 µM
O=C(CCc1cc(Cl)no1)N1CCOC(C(F)(F)F)C1 (centres undefined) | 134 µM | > 501 µM
CC(=O)NCc1noc2c1CN(Cc1ccsc1)CC2 | > 50.1 µM | > 50.1 µM
CCNc1ccnc(C(=O)NCc2ccccc2)c1 | 148 µM | 169 µM
CCN(C)Cc1nc(-c2ccccc2NS(C)(=O)=O)oc1C | > 50.1 µM | > 50.1 µM
NCCn1nc(C2CCN(Cc3ccccc3Cl)C2)c2nccnc21 (centres undefined) | > 50.1 µM | > 50.1 µM
Cc1ccccc1CN1CCCN(S(=O)(=O)N(C)C2CCCCC2)CC1 | > 50.1 µM | > 50.1 µM
CCC(NC(=O)NCCCOC)C(C)C (centres undefined) | > 501 µM | > 501 µM
